Results published in ChEMBL document CHEMBL4765442, “Anti-Giardia Drug Discovery: Current Status and Gut Feelings” (J Med Chem, 2020).
In brackets after ≈: the same amount, converted by molar mass. Values belong to the compound of their own block, whether it stands above or below them.

Tests used:
Giardia intestinalis [1] = assay: Antigiardial activity against Giardia duodenalis GS/M-83-H7 (ATCC 50581) incubated for 3 days by fluorescence method; type: functional, organism-based; settings: 72 h
Giardia intestinalis [2] = assay: Antigiardial activity against Giardia duodenalis WB (ATCC 30957) incubated for 3 days by fluorescence method; type: functional, organism-based; settings: WB ATCC 30957, 72 h
Giardia intestinalis [3] = assay: Antigiardial activity against Giardia duodenalis G1 incubated for 3 days by fluorescence method; type: functional, organism-based; settings: G1, 72 h
Giardia intestinalis [4] = assay: Antigiardial activity against Giardia duodenalis Ah1 incubated for 3 days by fluorescence method; type: functional, organism-based; settings: Ah1, 72 h
Giardia intestinalis [5] = assay: Antigiardial activity against Giardia duodenalis Ah2 incubated for 3 days by fluorescence method; type: functional, organism-based; settings: Ah2, 72 h
Giardia intestinalis [6] = assay: Antigiardial activity against Giardia duodenalis Ac1 incubated for 3 days by fluorescence method; type: functional, organism-based; settings: Ac1, 72 h
Giardia intestinalis [7] = assay: Antigiardial activity against Giardia duodenalis Ac2 incubated for 3 days by fluorescence method; type: functional, organism-based; settings: Ac2, 72 h
Giardia intestinalis [8] = assay: Antigiardial activity against Giardia duodenalis Ec1 incubated for 3 days by fluorescence method; type: functional, organism-based; settings: Ec1, 72 h
Giardia intestinalis [9] = assay: Antigiardial activity against Giardia duodenalis Ec2 incubated for 3 days by fluorescence method; type: functional, organism-based; settings: Ec2, 72 h
Giardia intestinalis [10] = assay: Antigiardial activity against Giardia lamblia WB (ATCC 30957) incubated for 3 days by [3H]thymidine incorporation based assay; type: functional, organism-based; settings: Giardia duodenalis
[11] = Half-life of the compound; type: physicochemical
Giardia intestinalis [12] = assay: Antigiardial activity against Giardia intestinalis IMSS:0696:1 incubated for 48 hrs followed by wash out by hemocytometric counting method; type: functional, organism-based; settings: Giardia duodenalis, IMSS:0696:1, 48 h
Giardia intestinalis [13] = assay: Growth inhibition of Giardia duodenalis isolate 14-03/F7 measured after 24 hrs by resazurin based assay; type: functional, organism-based; settings: isolate 14-03/F7, 24 h
Giardia intestinalis [14] = assay: Antigiardial activity against Giardia duodenalis BRIS/91/HEPU/1279 incubated for 3 days followed by compound wash-out and measured after 4 days; type: functional; settings: time 3 day
Giardia intestinalis [15] = assay: Antigiardial activity against Giardia duodenalis BRIS/83/HEPU/106 incubated for 3 days followed by compound wash-out and measured after 4 days; type: functional; settings: time 3 day
Giardia intestinalis [16] = assay: Antigiardial activity against metronidazole-resistant Giardia duodenalis BRIS/83/HEPU/106-2ID10 incubated for 3 days followed by compound wash-out and measured after 4 days; type: functional; settings: time 3 day
Giardia intestinalis [17] = assay: Antigiardial activity against metronidazole-resistant Giardia duodenalis WB1B-M3 incubated for 3 days followed by compound wash-out and measured after 4 days; type: functional; settings: time 3 day
Giardia intestinalis [18] = assay: Antigiardial activity against Giardia intestinalis incubated for 48 hrs; type: functional, organism-based; settings: Giardia duodenalis
Giardia intestinalis [19] = assay: Antimicrobial activity against Giardia lamblia BRIS/87/HEPU/713 trophozoites measured after 48 hrs by BacTiter-Glo cell viability assay; type: functional, organism-based; settings: Giardia duodenalis, BRIS/87/HEPU/713, 48 h
[20] = Selectivity ratio of CC50 for human HeLa cells incubated for 2 days by alamarBlue reagent to IC50 for Giardia lamblia BRIS/87/HEPU/713 measured after 48 hrs by BacTiter-Glo cell viability assay; type: toxicity; settings: read-out: Ratio CC50/IC50
Giardia intestinalis [21] = assay: Antigiardial activity against Giardia intestinalis WB ATCC 30957 incubated for 72 hrs by hemocytometric counting method; type: functional, organism-based; settings: Giardia duodenalis, WB ATCC 30957, 72 h
Giardia intestinalis [22] = assay: Antigiardial activity against metronidazole-resistant Giardia duodenalis WB-M3; type: functional
Giardia intestinalis [23] = assay: Antigiardial activity against metronidazole-resistant Giardia duodenalis 106-2ID10; type: functional
Giardia intestinalis [24] = assay: Antigiardial activity against metronidazole-resistant Giardia duodenalis 713-M3; type: functional
Giardia intestinalis [25] = assay: Antigiardial activity against metronidazole-resistant Giardia lamblia 713-M3 incubated for 48 hrs; type: functional, organism-based; settings: Giardia duodenalis, 713-M3, 48 h
Giardia intestinalis [26] = assay: Antigiardial activity against Giardia lamblia WBC6 incubated for 48 hrs; type: functional, organism-based; settings: Giardia duodenalis, WBC6, 48 h
Giardia intestinalis [27] = assay: Antigiardial activity against Giardia lamblia 713 incubated for 48 hrs; type: functional, organism-based; settings: Giardia duodenalis, 713, 48 h
Giardia intestinalis [28] = assay: Antimicrobial activity against Giardia lamblia BRIS/83/HEPU/106 trophozoites measured after 2 days by BacTiter-Glo cell viability assay; type: functional, organism-based; settings: Giardia duodenalis, BRIS/83/HEPU/106, 48 h
Giardia intestinalis [29] = assay: Antimicrobial activity against Giardia lamblia 713M3 trophozoites measured after 2 days by BacTiter-Glo cell viability assay; type: functional, organism-based; settings: Giardia duodenalis, 713M3, 48 h
Giardia intestinalis [30] = assay: Antimicrobial activity against Giardia lamblia WB-M2 trophozoites measured after 2 days by BacTiter-Glo cell viability assay; type: functional, organism-based; settings: Giardia duodenalis, WB-M2, 48 h
[31] = Selectivity ratio of CC50 for human HeLa cells incubated for 2 days by alamarBlue reagent to IC50 for Giardia lamblia BRIS/83/HEPU/106 measured after 48 hrs by BacTiter-Glo cell viability assay; type: toxicity; settings: read-out: Ratio CC50/IC50
[32] = Selectivity ratio of CC50 for human HeLa cells incubated for 2 days by alamarBlue reagent to IC50 for Giardia lamblia 713M3 measured after 48 hrs by BacTiter-Glo cell viability assay; type: toxicity; settings: read-out: Ratio CC50/IC50
[33] = Selectivity ratio of CC50 for human HeLa cells incubated for 2 days by alamarBlue reagent to IC50 for Giardia lamblia WB-M2 measured after 48 hrs by BacTiter-Glo cell viability assay; type: toxicity; settings: time 2 day, read-out: Ratio CC50/IC50

Compound: CC(=O)Oc1ccccc1C(=O)Nc1ncc([N+](=O)[O-])s1 [NITAZOXANIDE]
half-life [11]: 7.3 h

Compound: CN1CC/C(=C\c2ncc([N+](=O)[O-])n2C)C1=O
MLC (Giardia intestinalis [14]): 1 µM (≈ 0.236 µg/mL) | MLC (Giardia intestinalis [15]): 1 µM (≈ 0.236 µg/mL) | MLC (Giardia intestinalis [16]): 5 µM (≈ 1.18 µg/mL) | MLC (Giardia intestinalis [17]): 10 µM (≈ 2.36 µg/mL)

Compound: Cc1ncc([N+](=O)[O-])n1CCOC(=O)Nc1ccc(F)cc1
IC50 (Giardia intestinalis [12]): 500 nM

Compound: CC(=O)c1ccc(-c2cn(CCn3c([N+](=O)[O-])cnc3/C=C/c3ccco3)nn2)cc1
IC50 (Giardia intestinalis [19]): 3 nM | selectivity ratio at 48 h [20]: > 16800

Compound: CCCCCCCCCCC[C@@H](C[C@@H]1OC(=O)[C@H]1CCCCCC)OC(=O)[C@H](CC(C)C)NC=O [ORLISTAT]
IC50 (Giardia intestinalis [13]): 2800 nM

Compound: Cc1ncc([N+](=O)[O-])n1CCNC(=O)/C=C/c1ccc([N+](=O)[O-])o1
IC50 (Giardia intestinalis [21]): 5600 nM

Compound: Cc1ncc([N+](=O)[O-])n1CC(C)OC(=O)Nc1ccc(Cl)cc1 (configuration not stated)
IC50 (Giardia intestinalis [12]): 500 nM

Compound: Cn1c(-c2ccc3c(c2)OCO3)cnc1/C=C/c1ncc([N+](=O)[O-])n1C
MIC (Giardia intestinalis [22]): 1 µM (≈ 0.353 µg/mL) | MIC (Giardia intestinalis [23]): 1 µM (≈ 0.353 µg/mL) | MIC (Giardia intestinalis [24]): 0.5 µM (≈ 0.177 µg/mL)

Compound: Cc1ncc([N+](=O)[O-])n1CC(C)OC(=O)Nc1ccc([N+](=O)[O-])cc1 (configuration not stated)
IC50 (Giardia intestinalis [12]): 500 nM

Compound: O=C(CCCCCn1cc(C2CC2)nn1)Nc1ncc([N+](=O)[O-])s1
IC50 (Giardia intestinalis [19]): 100 nM | selectivity ratio at 48 h [20]: > 500 | IC50 (Giardia intestinalis [28]): 100 nM | IC50 (Giardia intestinalis [29]): 100 nM | IC50 (Giardia intestinalis [30]): 1800 nM | selectivity ratio at 48 h [31]: > 27 | selectivity ratio at 48 h [32]: > 27 | selectivity ratio at 48 h [33]: > 27

More lines, main results first:

IC50 (Giardia intestinalis [1]): 300 nM | IC50 (Giardia intestinalis [2]): 300 nM | IC50 (Giardia intestinalis [3]): 300 nM | IC50 (Giardia intestinalis [4]): 300 nM | IC50 (Giardia intestinalis [5]): 300 nM | IC50 (Giardia intestinalis [6]): 300 nM | IC50 (Giardia intestinalis [7]): 300 nM | IC50 (Giardia intestinalis [8]): 300 nM | IC50 (Giardia intestinalis [9]): 300 nM | IC50 (Giardia intestinalis [10]): 300 nM | half-life [11]: 12 h
Compound: CCS(=O)(=O)CCn1c([N+](=O)[O-])cnc1C [TINIDAZOLE]

IC50 (Giardia intestinalis [12]): 500 nM
Compound: Cc1ncc([N+](=O)[O-])n1CCOC(=O)NC1CCCCC1

IC50 (Giardia intestinalis [1]): 500 nM | IC50 (Giardia intestinalis [2]): 500 nM | IC50 (Giardia intestinalis [3]): 500 nM | IC50 (Giardia intestinalis [4]): 500 nM | IC50 (Giardia intestinalis [5]): 500 nM | IC50 (Giardia intestinalis [6]): 500 nM | IC50 (Giardia intestinalis [7]): 500 nM | IC50 (Giardia intestinalis [8]): 500 nM | IC50 (Giardia intestinalis [9]): 500 nM | IC50 (Giardia intestinalis [10]): 500 nM | IC50 (Giardia intestinalis [12]): 4400 nM | IC50 (Giardia intestinalis [18]): 1000 nM | half-life [11]: 6 h
Compound: Cc1ncc([N+](=O)[O-])n1CCO [METRONIDAZOLE]
IC50 (Giardia intestinalis [13]): 6200 nM | MLC (Giardia intestinalis [14]): 50 µM (≈ 8.56 µg/mL) | MLC (Giardia intestinalis [15]): 100 µM (≈ 17.1 µg/mL) | MLC (Giardia intestinalis [16]): >500 µM | MLC (Giardia intestinalis [17]): >500 µM

EC50 (Giardia intestinalis [25]): 600 nM | EC50 (Giardia intestinalis [26]): 600 nM | EC50 (Giardia intestinalis [27]): 1200 nM
Compound: CCOc1ccc2cc(-c3nc(C(C)(C)C)n4ccnc(N)c34)ccc2c1

IC50 (Giardia intestinalis [12]): 500 nM
Compound: Cc1ncc([N+](=O)[O-])n1CC(C)OC(=O)NC1CCCCC1 (configuration not stated)
